Results published in PMC9007913 (Angewandte Chemie (International ed. in English), 2022).

Tested on: ID8 cells
Assay: Inhibition assay of cellular uptake of OCTL14
Format: cell-based, murine
Details: pre-blocked 5-30 min, then 2 μM OCTL14 for 30 min

| Compound | change in cellular uptake of OCTL14 after pretreatment with inhibitor |
| --- | --- |
| O=C1OC(c2ccc(O)c(S(=O)(=O)O)c2)(c2ccc(O)c(S(=O)(=O)O)c2)c2c(Br)c(Br)c(Br)c(Br)c21 [BSP, bromsulphthalein] | did not result in significant changes in cellular uptake |
| O=C(N/N=C/c1cc(O)c(O)cc1O)c1cc2ccccc2cc1O [Dyngo 4a] | did not result in any appreciable change in cellular uptake |
| CN(C)C(=O)CCSC(SCCC(=O)O)c1cccc(/C=C/c2ccc3ccc(Cl)cc3n2)c1 (stereo not shown) [MK-571] | little change in cellular uptake |
| O=C1NC(=NS(=O)(=O)c2cccc3ccccc23)S/C1=C\c1ccc(Br)cc1 [Pitstop 2] | did not result in any appreciable change in cellular uptake |
